The values below come from patent US10745387B2, “Crystalline form of (2S,3S,6S,7R,10R,E)-7,10-dihydroxy-3,7-dimethyl-12-oxo-2-((R,2E,4E)-6-(piridin-2-yl)hepta-2,4-dien-2-yl)oxacyclododec-4-en-6-yl-4-methylpiperazine-1-carboxylate and methods of use thereof” (EISAI R&D MANAGEMENT CO., LTD., priority 2015, dated 2020).

For orientation: GI50 means the concentration that inhibits growth by half. The low end stands for more potent growth inhibition, the high end for less potent growth inhibition. Broadly, the IC50 is the point on the concentration scale where inhibition reaches its midpoint.

In data set [1] the test system is Panc 05.04 (mt SF3B1 cells). As to the kind of experiment: Cell viability assay (CellTiter-Glo), Panc 05.04. It is filed as cell-based. The settings on record: 72 hr. As for the experimental part:
(§1) Cells (WiDr and Panc05.04 obtained from ATCC) were seeded in 96-well plates, with 2000 cells/1004/well, and incubated overnight. Spent media was removed, and fresh, media containing 9 different concentrations of compound (1004/well) were added, with DMSO concentration from compound stock solution adjusted to be 0.1%. Each compound treatment was done in duplicate or triplicate at each concentration.
(§2) Another plate with cells seeded was dedicated as a time zero (Tz) plate, to which was added 0.1% DMSO in media (1004/well) followed by CellTiter-Glo® reagent (Promega Corporation, Madison, Wis.) (504/well) for ATP measurement as a surrogate of cell viability. Average value from measurement of multiple wells of this plate is used as Tz.
(§3) Compound-treated plates were incubated for 72 hr at 37° C. Then, CellTiter-Glo® reagent (504/well) was added and ATP was measured. […]
(§4) Percentage growth inhibition/Percentage viability was calculated as: [(Ti−Tz)/(C−Tz)]×100 for concentrations for which Ti>/=Tz [(Ti−Tz)/Tz]×100 for concentrations for which Ti<Tz. *time zero (Tz), control growth (C), and test growth in the presence of compound (Ti) Percentage growth inhibition/Percentage viability are plotted versus compound concentration to determine Emax. […]
For orientation: In ATP-based viability assays light output follows the ATP content of the culture.

In data set [2] the test system is WiDr cells (wildtype SF3B1). Put plainly: Cell viability assay (CellTiter-Glo), WiDr. It is filed as cell-based. As to conditions: Homo sapiens, 72 hr, ATP (CellTiter-Glo). As for the experimental part: as §1, §2, §3, §4
The test system of data set [3] is WiDr-R cells (SF3B1 R1074H mutation). As to the kind of experiment: Cell viability assay, resistant WiDr-R counter-screen. It is filed as cell-based. The settings on record: 72 hr, ATP (CellTiter-Glo). (In general: Counterscreens check selectivity or assay interference.)
Data set [4] deals with splicing of Ad2 pre-mRNA in HeLa nuclear extract. As to the kind of experiment: In vitro splicing (IVS) biochemical assay. The settings on record: 90 min, 30° C. As for the experimental part: Biotin-labeled pre-mRNA of an adenovirus type 2 construct with a deletion of intervening sequence (Ad2) (Berg, M. G., et al. 2012 Mol. Cell Bio., 32(7):1271-83) was prepared by in vitro transcription. The Ad2 construct containing Exon 1 (41 nucleotides), Intron (231 nucleotides), and Exon 2 (72 nucleotides) was generated by gene synthesis and cloned into the EcoRI and XbaI sites of pGEM®-3Z vector (Promega) by Genewiz® (South Plainfield, N.J.). The plasmid was then linearized by XbaI digestion and purified. In vitro transcription and purification of transcribed pre-mRNA were performed using the MEGAscript® T7 transcription kit (Invitrogen™, Life Technologies™, Grand Island, N.Y.) and MEGAclear™ transcription clean-up kit (Invitrogen™, Life Technologies™, Grand Island, N.Y.), respectively, following the manufacturer's instructions. […]
In vitro splicing assay was performed at 30° C. in 254 reaction mixtures containing 95 μg HeLa nuclear extract (Promega Corporation, Madison, Wis.), 47 nM Ad2 pre-mRNA, 25U RNasin RNase inhibitor (Promega Corporation, Madison, Wis.), 1×SP buffer (0.5 mM ATP, 20 mM creatine phosphate, 1.6 mM MgCl2), and compounds in DMSO (with 1% final concentration of DMSO). […] The amount of spliced RNA was quantified by measuring the band fluorescent intensity using LI-COR Image Studio software. […]

Data set [5] concerns WiDr-R cells (SF3B1 R1074H mutation). The settings on record: cited from earlier work.
Data set [6] in a line: Solid state stability study. The data set is classed as physicochemical. As for the experimental part: Solid state stability studies were carried out on crystalline Form 1 under the following conditions: • Stored at 25° C. for 7 and 14 days • Stored at 40° C./75% RH (open) for 7 and 14 days • Stored at 60° C. for 7 and 14 days

For the compound `C/C(=C\C=C\[C@@H](C)c1ccccn1)[C@H]1OC(=O)C[C@H](O)CC[C@@](C)(O)[C@@H](OC(=O)N2CCN(C)CC2)/C=C/[C@@H]1C` [Compound 1, (2S,3S,6S,7R,10R,E)-7,10-dihydroxy-3,7-dimethyl-12-oxo-2-((R,2E,4E)-6-(pyridin-2-yl)hepta-2,4-dien-2-yl)oxacyclododec-4-en-6-yl 4-methylpiperazine-1-carboxylate], the GI50 in data set [1] (ATP (CellTiter-Glo)) was 32.7 nM; in data set [2], 31.8 nM; in data set [3], above 1000 nM. The Emax in data set [1] (negative value indicates cellular lethality) was -66.1%. This compound showed an IC50 in data set [4] of 1330 nM.
With pladienolide B, in data set [5], the “Growth inhibition in WiDr-R cells (resistance)” value is on record as “resistant”.
With `C/C(=C\C=C\[C@@H](C)c1ccccn1)[C@H]1OC(=O)C[C@H](O)CC[C@@](C)(O)[C@@H](OC(=O)N2CCN(C)CC2)/C=C/[C@@H]1C` [crystalline Form 1, (2S,3S,6S,7R,10R,E)-7,10-dihydroxy-3,7-dimethyl-12-oxo-2-((R,2E,4E)-6-(pyridin-2-yl)hepta-2,4-dien-2-yl)oxacyclododec-4-en-6-yl 4-methylpiperazine-1-carboxylate], in data set [6] (25° C., 40° C./75% RH (open), 60° C., each for 7 and 14 days), the “Degradation on storage (solid state stability)” value was “No significant degradation”. The “Change in crystallinity (XRPD and TGA-DSC)” value in data set [6] (40° C./75% RH (open) for 14 days) is “no change in crystallinity”.
Take `CCC(O)C(C)C1OC1CC(C)(O)/C=C/C=C(\C)C1OC(=O)CC(O)CCC(C)(O)C(OC(=O)N2CCN(C3CCCCCC3)CC2)/C=C/C1C` (stereo not drawn) [Compound E7107, (8E,12E,14E)-7-((4-cycloheptylpiperazin-1-yl)carbonyl)oxy-3,6,16,21-tetrahydroxy-6,10,12,16,20-pentamethyl-18,19-epoxytricosa-8,12,14-trien-11-olide]: the “Growth inhibition in WiDr-R cells (resistance)” value in data set [5] is reported as “resistant”.
